Results on 1 molecule are retold here after US20070218016A1, “Use of Aroma Substance Mixtures as Agents Against Bad Breath” (SYMRISE GMBH & CO. KG, priority 2004, published 2007).

The subject of this test is sterile liquid medium inoculated with fresh morning saliva. The test is described as follows: In vitro test for reduction of bad breath (inoculated medium smelled by a panel of testers). It is filed as cell-based. The following applies: 0.05% added to inoculated samples, incubated at 37° C. for some days. As for the experimental part: In Vitro Test for Reduction of Bad Breath
The test is based on the work of Goldberg and Rosenberg (Production of Oral Malodor in an in vitro System, S. Goldberg and M. Rosenberg, pp. 143-150, in: Bad Breath—A Multidisciplinary Approach, eds: D. van Steenberghe, M. Rosenberg, Leuven University Press, 1996) and was adapted for better reproducibility.
A sterile liquid medium inoculated with fresh morning saliva is incubated at 37° C. for some days and then smelled by a panel of testers.
An intensive, typical bad breath odour had formed. Non-inoculated controls have only a weak smell of the medium.
Triclosan® (5-chloro-2-(2,4-dichlorophenoxy)phenol) was added to inoculated samples in a concentration of 0.05% as a control for the tests.
By addition of in each case 0.01% of the mixtures E-1 to E-6 according to the invention (see Table 1) to inoculated samples, no smell—analogously to Triclosan®—was to be found after the incubation time. This value also corresponds to the minimum active concentration.
If 0.05% of a mixture according to the invention is added to the inoculated medium only one hour before the sensory evaluation, an unpleasant mixed smell of bad breath and a weak note of the mixture according to the invention is to be observed.

The structures appear in SMILES notation.

With `Oc1cc(Cl)ccc1Oc1ccc(Cl)cc1Cl` [Triclosan, 5-chloro-2-(2,4-dichlorophenoxy)phenol], the “smell after the incubation” value was “same weak smell of the medium as the non-inoculated samples”.
